Assay results: patent US9387215B2, “Animal feed including cationic cholesterol additive and related methods” (priority 2013, dated 2016)

Legend:
Format in all cases: in vivo
[1] = Confined animal feed operation study of chickens, additive in drinking water; settings: for Harvest weight / Weight gain: day one through day 35, CSA-44 5 ppm in drinking water, control tetracycline in feed; for Death loss: in vivo
Description: A study of 50,000 birds performed in 2 groups of 25,000 birds was performed on a confined animal feed operation. The following cationic cholesterol additive (CSA-44) was added to animal drinking water:
The additive was prepared in drinking water at a concentration of 5 ppm. The dry feed administered to the chickens contained no antibiotic.
A control group of birds was delivered tetracycline in animal feed according to conventional practices.
The cationic cholesterol additive was given from day one through day 35.

[2] = tested on: Lactobacillus bacteria (LAB); assay: Lactobacillus bacteria (LAB) concentration in ileum, cecum and colon of mice after oral CSA-44; settings: 10 mg/kg oral gastric lavage, 12 and 24 hours post Tx
Description: To evaluate the effectiveness of cationic cholesterol compounds on GI microbiota, the following compound (CSA-44) was administered oraly by gastric lavage to mice at 10 mg/kg:
To determine the health improvements caused by the cationic cholesterol compound, the concentration (cfu/mL) of Lactobacillus bacteria (LAB) (beneficial flora) in the ileum, cecum, and colon was determined at 12 and 24 hours. The LAB concentration was compared to control mice.
As illustrated in the graphs of FIGS. 1 and 2, the cationic cholesterol compound appears to have a significant “sparing” effect on beneficial Lactobacillus bacteria (LAB) flora (log values on y-axis) in the ileum, cecum and colon (on x-axis) when compared to control mice at 12 and 24 hours after being given CSA-44 (“post Tx”), resulting in almost a 2 log increase in LAB concentration in all 3 segments of the intestine when compared to control mice. This increase in LAB concentration flora is a surprising and unexpected result.

C. difficile ATCC 9689 = assay: Weight gain of mice after C. difficile challenge; settings: oral 10 mg/kg once, 24 and 48 hours after 1×10^5 cfu or 72 hours after 1×10^6 cfu challenge; FIG. 3
Description: In another study with the mice of Example 2, a cationic cholesterol additive was administered to determine changes in weight gain. The compound was administered orally @10/mg/kg once, 24 and 48 hours after C. difficile ATCC 9689 challenge at 1×10^5 cfu (or CFU) or 72 hours after challenge with 1×10^6 cfu (or CFU) (Day 0). The results are illustrated in the graph of FIG. 3.

C. difficile = assay: LD50 C. difficile challenge model, survival of mice; settings: administered 24 hours after C. difficile challenge; Day 0, Day 3, Day 10; versus control mice; FIG. 5
Description: The mice of Example 2 were also evaluated for decreased morbidity in an LD50 C. difficile challenge model. The cationic cholesterol compound was administered 24 hours after C. difficile challenge (“Tx 24 Hr.”). FIG. 4 illustrates the steps used in performing the study.

CCCCCCCCOC(=O)CC[C@@H](C)[C@H]1CC[C@H]2[C@@H]3[C@H](OC(=O)CCN)C[C@@H]4C[C@H](OC(=O)CCN)CC[C@]4(C)[C@H]3C[C@H](OC(=O)CCN)[C@]12C [CSA-44]
Feed conversion efficiency improved ([1]; chickens, 5 ppm in drinking water, versus tetracycline control): 8%
Harvest weight ([1]; chickens): 4.22 lbs
Weight gain ([1]; chickens): 0.120 lbs per day
Death loss [1]: 535 birds
Increase in LAB concentration compared to control mice [2]: ~2 log
Weight gain after challenge with C. difficile (C. difficile ATCC 9689): trend for the treated mice to have greater weight gain
Survival rate (C. difficile): improved survival rate

CN(C)[C@@H]1C(O)=C(C(N)=O)C(=O)[C@@]2(O)C(O)=C3C(=O)c4c(O)cccc4[C@@](C)(O)[C@H]3C[C@@H]12 [tetracycline, reference compound]
Harvest weight ([1]; chickens): 3.85 lbs
Weight gain ([1]; chickens): 0.112 lbs per day
Death loss [1]: 1400-1500 birds
